Test results: patent publication US20040023972A1, “Use of substituted imidazo[1,2-a]-pyridin-, -pyrimidin-and-pyrazin-3-yl-amine derivatives in the preparation of medicaments for inhibiting NOS” (Gruenenthal GmbH, priority 2000, published 2004)

Each compound was assayed against T1, NO synthase (Rattus norvegicus, UniProt P29476) (assay: HTS-NOS assay (NOS assay): conversion of radioactive arginine, cation-exchanger filter plate). Conditions: 10 μM.
T1 construct: the supernatant was then removed by decantation and frozen in portions at −80° C; from tissue; host or cells: rat cerebellum, 20,000 g supernatant of homogenate
Assay type: biochemical
How it was run: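 Percent inhibition was derived by comparing remaining radioactive arginine with compound-free controls. Arginine retained on phosphate cation-exchanger filters was counted after citrulline washout, following a 5-60 min room-temperature (25 °C) reaction of labelled arginine, NADPH-containing medium and rat cerebellar homogenate supernatant.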

Row | Structure (SMILES) | HTS-NOS assay: % inhibition (10 μM) [%]
1 | Cc1ccn2c(NC3CCCCC3)c(-c3ccccc3C(F)(F)F)nc2c1 [Example 13, Cyclohexyl-[7-methyl-2-(2-trifluorO-methyl-phenyl)-imidazo[1,2-a]pyridin-3-yl]-amine] | 57
2 | C#[N+]CCCCCCNc1c(-c2ccccc2C(F)(F)F)nc2cc(C)cc(C)n12 [Example 75, {6-[5,7-Dimethyl-2-(2-trifluorO-methyl-phenyl)-imidazo[1,2-a]pyridin-3-ylamino]-hexyl}-methylidyne-ammonium] | 56
3 | CC(=O)OCc1ccc(-c2nc3cc(C)cc(C)n3c2N(C(C)=O)c2c(C)cccc2C)o1 [Example 243, acetic acid 5-{3-[acetyl-(2,6-dimethyl-phenyl)-amino]-5,7-dimethyl-imidazo[1,2-a]pyridin-2-y}-furan-2-yl methyl ester] | 62
4 | [C-]#[N+]CCCCCCNc1c(-c2cccc(O)c2)nc2c(C)cccn12 [Example 131, {6-[2-(3-Hydroxy-phenyl)-8-methyl-imidazo[1,2-a]pyridin-3-ylamino]-hexyl}-methylidyne-ammonium] | 55
5 | C#[N+]CCCCCCN(C(C)=O)c1c(-c2ccccc2OC)nc2ccc([N+](=O)[O-])cn12 [Example 238, (6-{acetyl-[2-(2-methoxy-phenyl)-6-nitro-imidazo[1,2-a]pyridin-3-yl]-amino}-hexyl)-methylidyne-ammonium] | 52

Same assay, conditions: Table 5; concentration not given

Row | Structure (SMILES) | NOS assay % inhibition [%]
6 | Cc1ccn2c(NC(C)(C)CC(C)(C)C)c(-c3ccoc3)nc2c1.Cl [Example 311, (2-Furan-3-yl-7-methyl-imidazo[1,2-a]pyridin-3-yl)-(1,1,3,3-tetramethyl-butyl)-amine hydrochloride] | 45
7 | Cc1cc(C)n2c(NC(C)(C)CC(C)(C)C)c(-c3ccoc3)nc2c1.Cl [Example 308, (2-Furan-3-yl-5,7-dimethyl-imidazo[1,2-a]-pyridin-3-yl)-(1,1,3,3-tetramethyl-butyl)-amine hydrochloride] | 50

Same assay, conditions: read-out: HTS-NOS assay: % inhibition (10 μM)

Row | Structure (SMILES) | inhibition at 10 µM [%]
8 | CC(=O)N(c1c(-c2c(F)cccc2Cl)nc2cccc(C)n12)C1CCCCC1 [Example 254, N-[2-(2-chloro-6-fluoro-phenyl)-5-methyl-imidazo[1,2-a]pyridin-3-yl]-N-cyclohexyl-acetamide] | 51
9 | CCc1ccn2c(Nc3ccc(F)c(Cl)c3)c(-c3ccc(-c4cccc(Cl)c4)o3)nc2c1 [Example 320, (3-Chloro-4-fluorophenyl)-{2-[5-(3-chloro-phenyl)-furan-2-yl]-7-ethyl-imidazo[1,2-a]-pyridin-3-yl}-amine] | 52
10 | CC(=O)N(c1c(-c2ccc([N+](=O)[O-])o2)nc2cc(C)cc(C)n12)C1CCCCC1 [Example 173, N-cyclohexyl-N-[5,7-dimethyl-2-(5-nitro-furan-2-yl)-imidazo[1,2-a]pyridin-3-yl]-acetamide] | 67
11 | Cc1cccn2c(NC3CCCCC3)c(-c3ccncc3)nc12 [Example 111, Cyclohexyl-(8-methyl-2-pyridin-4-yl-imidazo[1,2-a]pyridin-3-yl)-amine] | 52
12 | CCCCNc1c(C2CCCCC2)nc2cc(C)cc(C)n12 [Example 37, Butyl-(2-cyclohexyl-5,7-dimethyl-imidazo[1,2-a]pyridin-3-yl)-amine] | 58
13 | CCc1ccn2c(Nc3ccc(F)c(Cl)c3)c(-c3cc4ccccc4o3)nc2c1 [Example 318, (2-Benzofuran-2-yl-7-ethyl-imidazo[1,2-a]-pyridin-3-yl)-(3-chloro-4-fluoro-phenyl)-amine] | 52
14 | Cc1ccn2c(NC(C)(C)CC(C)(C)C)c(-c3ccc(-c4ccccc4Cl)o3)nc2c1 [Example 80, {2-[5-(2-Chlorophenyl)-furan-2-yl]-7-methyl-imidazo[1,2-a]pyridin-3-yl}-(1,1,3,3-tetramethyl-butyl)-amine] | 52
15 | COc1ccccc1-c1nc2c(C)cccn2c1NC1CCCCC1 [Example 82, Cyclohexyl-[2-(2-methoxy-phenyl)-8-methyl-imidazo[1,2-a]pyridin-3-yl]-amine] | 62
16 | CC(=O)N(c1c(C)nc2cc(C)cc(C)n12)C1CCCCC1 [Example 175, N-cyclohexyl-N-(2,5,7-trimethyl-imidazo[1,2-a]pyridin-3-yl)-acetamide] | 52

Next, values leading:

Row | inhibition at 10 µM [%] | Structure (SMILES)
17 | 69 | COc1cc(-c2nc3c(C)cc(Br)cn3c2N(C(C)=O)c2c(C)cccc2C)ccc1OC(C)=O [Example 213, acetic acid 4-{3-[acetyl-(2,6-dimethyl-phenyl)-amino]-6-bromo-8-methyl-imidazo[1,2-a]pyridin-2-yl}-2-methoxy-phenyl ester]
18 | 53 | CC(=O)N(c1c(-c2sccc2Br)nc2ccc(C)cn12)C1CCCCC1 [Example 224, N-[2-(3-bromo-thiophen-2-yl)-6-methyl-imidazo[1,2-a]pyridin-3-yl]-N-cyclohexyl-acetamide]
19 | 55 | CC(=O)N(c1c(C)cccc1C)c1c(-c2cccc(Cl)c2Cl)nc2cc(C)ccn12 [Example 160, N-[2-(2,3-dichloro-phenyl)-7-methyl-imidazo[1,2-a]pyridin-3-yl]-N-(2,6-dimethyl-phenyl)-acetamide]
20 | 53 | CC(=O)N(c1c(-c2ccc(C)s2)nc2ncccn12)C(C)(C)C [Example 266, N-tert-butyl-N-[2-(5-methyl-thiophen-2-yl)-imidazo[1,2-a]pyrimidin-3-yl]-acetamide]
21 | 51 | COc1ccccc1-c1nc2cc(C)ccn2c1N(C(C)=O)c1c(C)cccc1C [Example 184, N-(2,6-dimethyl-phenyl)-N-[2-(2-methoxy-phenyl)-7-methyl-imidazo[1,2-a]-pyridin-3-yl]-acetamide]
22 | 56 | Cc1cc(C)n2c(NC(C)(C)C)c(-c3ccc(C(=O)O)o3)nc2c1 [Example 67, 5-(3-Tert-butylamino-5,7-dimethyl-imidazo[1,2-a]pyridin-2-yl)-furan-2-carboxylic acid]
23 | 68 | Cc1ccc2nc(-c3ccncc3)c(NC(C)(C)CC(C)(C)C)n2c1 [Example 124, (6-Methyl-2-pyridin-4-yl-imidazo[1,2-a]-pyridin-3-yl)-(1,1,3,3-tetramethyl-butyl)-amine]
24 | 55 | CC(=O)N(c1c(-c2ccc(C)cc2)nc2cc(C)ccn12)C(C)(C)CC(C)(C)C [Example 185, N-(7-methyl-2-p-tolyl-imidazo[1,2-a]pyridin-3-yl)-N-(1,1,3,3-tetramethyl-butyl)-acetamide]
25 | 61 | Cc1ccn2c(NC(C)(C)CC(C)(C)C)c(C)nc2c1 [Example 40, (2,7-Dimethyl-imidazo[1,2-a]pyridin-3-yl)-(1,1,3,3-tetramethyl-butyl)-amine]
26 | 63 | CC(=O)N(c1c(-c2ccncc2)nc2cc(C)ccn12)C1CCCCC1 [Example 163, N-cyclohexyl-N-(7-methyl-2-pyridin-4-yl-imidazo[1,2-a]pyridin-3-yl)-acetamide]
27 | 58 | Cc1ccccc1-c1nc2c(C)cccn2c1Nc1c(C)cccc1C [Example 130, (2,6-Dimethyl-phenyl)-(8-methyl-2-o-tolyl-imidazo[1,2-a]pyridin-3-yl)-amine]
28 | 54 | COc1ccccc1-c1nc2cc(C)cc(C)n2c1N(C(C)=O)c1c(C)cccc1C [Example 180, N-(2,6-dimethyl-phenyl)-N-[2-(2-methoxy-phenyl)-5,7-dimethyl-imidazo[1,2-a]-pyridin-3-yl]-acetamide]
